Experimental findings from ChEMBL document CHEMBL1147342, “Isolation and structure of the marine sponge cell growth inhibitory cyclic peptide phakellistatin 1” (1993) are described below.

Converted amounts (≈) assume the structure as drawn. Peptide text beside a SMILES is read from it.

In this assay the test system is P388. Put plainly: Cytotoxicity against mouse P388 cells. The following applies: read-out: ED50 (the source's name). In kind it is functional.

In the case of `CC[C@H](C)[C@@H]1NC(=O)[C@@H]2CCCN2C(=O)[C@H]([C@@H](C)CC)NC(=O)[C@@H]2CCCN2C(=O)[C@H](Cc2ccc(O)cc2)NC(=O)[C@@H]2CCCN2C(=O)[C@H](Cc2ccccc2)NC1=O` [PHAKELLISTATIN 1] (cyclo(FPYPIPI)), the EC50 is 7.5 µg/mL (≈ 9.06 µM).
